Source: patent US20210387966A1, “2-AMINO-N-HETEROARYL-NICOTINAMIDES AS NAV1.8 INHIBITORS” (Merck Sharp & Dohme Corp., priority 2018, published 2021)

The molecules below were run against T1, human Nav1.8 channels (Homo sapiens, UniProt Q9Y5Y9) (assay: Nav1.8 Qube automated patch-clamp assay). Conditions: human Nav1.8 stably expressed in HEK 293 cells; whole-cell voltage clamp, room temperature; resting or inactivated state not specified; read-out: IC50 values (nM) for Examples in the Nav1.8 Qube Assay.
T1 construct: expressed in transfected cells
T1 sequence (Q9Y5Y9 whole entry): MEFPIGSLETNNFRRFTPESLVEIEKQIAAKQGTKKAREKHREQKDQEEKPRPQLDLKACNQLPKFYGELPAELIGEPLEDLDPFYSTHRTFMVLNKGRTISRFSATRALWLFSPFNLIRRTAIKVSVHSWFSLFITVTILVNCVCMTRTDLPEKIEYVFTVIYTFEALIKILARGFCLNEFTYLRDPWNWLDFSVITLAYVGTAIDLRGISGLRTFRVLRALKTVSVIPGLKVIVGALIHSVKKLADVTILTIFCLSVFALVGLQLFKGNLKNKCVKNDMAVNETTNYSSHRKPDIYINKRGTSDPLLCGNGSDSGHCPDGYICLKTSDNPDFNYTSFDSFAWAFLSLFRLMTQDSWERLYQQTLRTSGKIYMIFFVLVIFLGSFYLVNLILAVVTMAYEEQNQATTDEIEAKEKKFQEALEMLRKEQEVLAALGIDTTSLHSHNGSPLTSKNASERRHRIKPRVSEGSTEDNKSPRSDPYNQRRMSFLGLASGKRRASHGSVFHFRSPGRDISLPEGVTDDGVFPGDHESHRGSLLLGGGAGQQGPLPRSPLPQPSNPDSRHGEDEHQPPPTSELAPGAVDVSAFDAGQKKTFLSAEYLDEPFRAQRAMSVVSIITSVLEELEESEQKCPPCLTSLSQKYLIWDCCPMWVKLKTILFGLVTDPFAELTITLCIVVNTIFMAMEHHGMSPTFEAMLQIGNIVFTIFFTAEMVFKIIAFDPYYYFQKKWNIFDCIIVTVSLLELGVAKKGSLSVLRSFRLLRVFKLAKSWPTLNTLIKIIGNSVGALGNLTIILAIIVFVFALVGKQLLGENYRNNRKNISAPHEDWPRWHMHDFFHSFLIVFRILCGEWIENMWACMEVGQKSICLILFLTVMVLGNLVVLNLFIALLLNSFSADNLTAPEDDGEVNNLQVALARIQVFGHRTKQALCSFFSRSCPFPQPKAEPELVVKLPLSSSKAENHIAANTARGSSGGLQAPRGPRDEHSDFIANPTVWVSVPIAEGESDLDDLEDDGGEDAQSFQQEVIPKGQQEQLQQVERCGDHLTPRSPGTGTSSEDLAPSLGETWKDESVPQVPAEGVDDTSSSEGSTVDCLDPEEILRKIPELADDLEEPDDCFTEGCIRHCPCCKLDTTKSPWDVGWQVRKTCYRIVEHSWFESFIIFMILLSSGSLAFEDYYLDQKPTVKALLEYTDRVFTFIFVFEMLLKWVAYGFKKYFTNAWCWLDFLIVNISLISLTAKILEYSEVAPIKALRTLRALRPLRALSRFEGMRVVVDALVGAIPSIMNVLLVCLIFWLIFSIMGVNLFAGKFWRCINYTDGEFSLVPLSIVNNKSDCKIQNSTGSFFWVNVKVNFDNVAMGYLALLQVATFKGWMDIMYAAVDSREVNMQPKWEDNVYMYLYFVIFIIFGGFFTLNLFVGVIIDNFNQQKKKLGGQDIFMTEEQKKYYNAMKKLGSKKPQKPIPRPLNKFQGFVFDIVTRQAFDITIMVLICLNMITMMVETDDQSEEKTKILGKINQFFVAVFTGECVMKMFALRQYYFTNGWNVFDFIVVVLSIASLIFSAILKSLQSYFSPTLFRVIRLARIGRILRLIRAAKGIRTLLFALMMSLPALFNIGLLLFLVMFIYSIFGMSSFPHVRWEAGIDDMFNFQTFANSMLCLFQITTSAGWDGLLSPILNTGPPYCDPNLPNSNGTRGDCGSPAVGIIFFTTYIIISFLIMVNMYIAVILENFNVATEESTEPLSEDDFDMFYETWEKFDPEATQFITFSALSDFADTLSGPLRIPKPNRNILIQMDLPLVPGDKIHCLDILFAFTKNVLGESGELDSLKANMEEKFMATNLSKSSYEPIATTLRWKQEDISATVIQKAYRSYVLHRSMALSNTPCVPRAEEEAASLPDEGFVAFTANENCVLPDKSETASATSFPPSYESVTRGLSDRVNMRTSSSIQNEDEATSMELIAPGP
Format: cell-based
Procedure, shortened: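 Whole-cell patch clamp at room temperature on HEK293 cells stably expressing human Nav1.8. A 1 Hz train of ten 20 ms pulses to 10 mV from −90 mV holding, with −67 mV repolarization, was applied; first- and tenth-pulse peak currents gave resting and inactivated-state IC50s by Hill fitting.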

SMILES | IC50
COc1cc(NC(=O)c2cc(C(F)(F)F)cnc2N2CCCC(F)(F)CC2)ccn1 [Example 146, 2-(4,4-difluoroazepan-1-yl)-N-(2-methoxy-4-pyridyl)-5-(trifluoro-methyl)pyridine-3-carboxamide] | 177 nM
CCS(=O)(=O)c1cc(NC(=O)c2cc(C(F)(F)F)cnc2N2CCCCCC2)ccn1 [Example 198, 2-(azepan-1-yl)-N-(2-ethylsulfonyl-4-pyridyl)-5-(trifluoro-methyl)pyridine-3-carboxamide] | 425 nM
NS(=O)(=O)c1cc(NC(=O)c2cc(C(F)(F)F)cnc2N2CCn3c(Cc4ccccc4)cnc3C2)ccn1 [Example 86, 2-(3-benzyl-6,8-dihydro-5H-imidazo[1,2-a]pyrazin-7-yl)-N-(2-sulfamoyl-4-pyridyl)-5-(trifluoromethyl)pyridine-3-carboxamide] | 172 nM
O=C(O)c1ccc(NC(=O)c2cc(C(F)(F)F)cnc2N2CCC(F)(F)CC2)cn1 [Example 3, 5-(2-(4,4-difluoropiperidin-1-yl)-5-(trifluoromethyl)nicotinamido)picolinic acid] | 2380 nM
NS(=O)(=O)c1cc(NC(=O)c2cnc(C3CC3)nc2N2CCCC(F)(F)CC2)ccn1 [Example 38, 2-cyclopropyl-4-(4,4-difluoroazepan-1-yl)-N-(2-sulfamoylpyridin-4-yl)pyrimidine-5-carboxamide] | 24 nM
CC1(C)CN(c2ncc(C(F)(F)F)cc2C(=O)Nc2ccnc(S(N)(=O)=O)c2)CC(C(F)(F)F)O1 (single isomer, unassigned) [Example 135, (R or S)-2-(2,2-dimethyl-6-(trifluoromethyl)morpholino)-N-(2-sulfamoylpyridin-4-yl)-5-(trifluoromethyl)nicotinamide] | 57 nM
CC1CN(c2nc(C(F)(F)F)ccc2C(=O)Nc2ccnc(S(N)(=O)=O)c2)CCC1(F)F (single isomer, unassigned) [Example 163, (S or R)-2-(4,4-difluoro-3-methylpiperidin-1-yl)-N-(2-sulfamoylpyridin-d-yl)-6-(trifluoromethyl)nicotinamide] | 10 nM
C[C@@H]1CN(c2ncc(C(F)(F)F)cc2C(=O)Nc2ccnc(S(N)(=O)=O)c2)CCC1(F)F (single isomer, unassigned) [Example 48] | 12 nM
COc1ccc(C(=O)Nc2cncc(S(N)(=O)=O)c2)c(N2CCCC(F)(F)CC2)n1 [Example 192, 2-(4,4-difluoroazepan-1-yl)-6-methoxy-N-(5-sulfamoyl-3-pyridyl)pyridine-3-carboxamide] | 163 nM
C[C@@H]1CN(c2ncc(C(F)(F)F)cc2C(=O)Nc2ccnc(S(N)(=O)=O)c2)C[C@H](C)C1(F)F [Example 52, 2-[(3S,5R)-4,4-difluoro-3,5-dimethyl-1-piperidyl]-N-(2-sulfamoyl-4-pyridyl)-5-(trifluoromethyl)pyridin-3-carboxamide] | 2.8 nM
Cc1nc(N2CCC(F)(F)C(C)C2)c(C(=O)Nc2ccnc(S(N)(=O)=O)c2)cc1Cl (single isomer, unassigned) [Example 55, (S or R)-5-chloro-2-(4,4-difluoro-3-methylpiperidin-1-yl)-6-methyl-N-(2-sulfamoylpyridin-4-yl)nicotinamide] | 1.4 nM
CC1(C)CN(c2ncc(C(F)(F)F)cc2C(=O)Nc2ccnc(S(N)(=O)=O)c2)CCN1CC(F)(F)F [Example 87, 2-[3,3-dimethyl-4-(2,2,2-trifluoroethyl)piperazin-1-yl]-N-(2-sulfamoyl-4-pyridyl)-5-(trifluoromethyl)pyridine-3-carboxamide] | 223 nM
CC1(C)c2cc(F)ccc2CN1c1ncc(C(F)(F)F)cc1C(=O)Nc1ccnc(S(N)(=O)=O)c1 [Example 113, 2-(6-fluoro-1,1-dimethyl-isoindolin-2-yl)-N-(2-sulfamoyl-4-pyridyl)-5-(trifluoromethyl)pyridine-3-carboxamide] | 9330 nM
Cc1nc(N2CCOC(C(F)F)CC2)c(C(=O)Nc2ccnc(S(N)(=O)=O)c2)cc1Cl (single isomer, unassigned) [Example 117, 5-chloro-2-[(7S or 7R)-7-(difluoromethyl)-1,4-oxazepan-4-yl]-6-methyl-N-(2-sulfamoylpyridin-4-yl)pyridine-3-carboxamide] | 18 nM
NC(=O)c1cncc(NC(=O)c2cc(C(F)(F)F)cnc2N2CCCCCC2)c1 [Example 8, 2-(azepan-1-yl)-N-(5-carbamoylpyridin-3-yl)-5-(trifluoromethyl)nicotinamide] | 2350 nM
O=C(Nc1cncc(C(F)(F)F)c1)c1cc(C(F)(F)F)cnc1N1CCCCCC1 [Example 200, 2-(azepan-1-yl)-5-(trifluoromethyl)-N-[5-(trifluoromethyl)-3-pyridyl]pyridine-3-carboxamide] | 9670 nM
CC1CN(c2ncc(C(F)(F)F)cc2C(=O)Nc2ccnc(C#N)c2)CCC1(F)F (single isomer, unassigned) [Example 155, (R or S)-N-(2-cyanopyridin-4-yl)-2-(4,4-difluoro-3-methylpiperidin-1-yl)-5-(trifluoro-methyl)nicotinamide] | 60 nM

SMILES | IC50
NS(=O)(=O)c1cc(NC(=O)c2cc(C(F)(F)F)cnc2N2CCCC(Cl)(Cl)CC2)ccn1 [Example 51, 2-(4,4-Dichloroazepan-1-yl)-N-(2-sulfamoylpyridin-4-yl)-5-(trifluoromethyl)nicotinamide] | 6.6 nM
Cc1nc(N2CCCCCC2)c(C(=O)Nc2cncc(S(N)(=O)=O)c2)c(C)c1Cl [Example 188, 2-(azepan-1-yl)-5-chloro-4,6-dimethyl-N-(5-sulfamoyl-3-pyridyl)pyridine-3-carboxamide] | 5.9 nM
Cc1nc(N2CCC3(CC2)CC3)c(C(=O)Nc2ccnc(S(N)(=O)=O)c2)c(C)c1Cl [Example 202, 5-chloro-4,6-dimethyl-2-(6-azaspiro[2.5]octan-6-yl)-N-(2-sulfamoylpyridin-4-yl)nicotinamide] | 1.9 nM
CC12CCN(c3ncc(C(F)(F)F)cc3C(=O)Nc3ccnc(S(N)(=O)=O)c3)CC1C2(F)F (single isomer, unassigned) [Example 62, 2-[(1R,6R or 1S,6S)-7,7-difluoro-6-methyl-3-azabicyclo[4.1.0]heptan-3-yl]-N-(2-sulfamoyl-4-pyridyl)-5-(trifluoromethyl)pyridine-3-carboxamide] | 105 nM
C[C@@H]1CN(c2ncc(C(F)(F)F)cc2C(=O)Nc2ccnc(S(N)(=O)=O)c2)CCCO1 [Example 111, 2-[(2R)-2-methyl-1,4-oxazepan-4-yl]-N-(2-sulfamoyl-4-pyridyl)-5-(trifluoromethyl)pyridine-3-carboxamide] | 633 nM
CC1CN(c2ncc(C(F)(F)F)cc2C(=O)Nc2ccnc(C#N)c2)CCC1(F)F (single isomer, unassigned) [Example 154, (S or R)-N-(2-cyanopyridin-4-yl)-2-(4,4-difluoro-3-methylpiperidin-1-yl)-5-(trifluoro-methyl)nicotinamide] | 84 nM
Cc1nc(C2CCC(C)CC2)c(C(=O)Nc2ccnc(S(N)(=O)=O)c2)c(C)c1Cl (stereo not drawn) [Example 215, 5-chloro-4,6-dimethyl-2-(4-methylcyclohexyl)-N-(2-sulfamoylpyridin-4-yl)nicotinamide] | 6.6 nM
NS(=O)(=O)c1cncc(NC(=O)c2cc(C(F)(F)F)cnc2N2CCCCCC2)c1 [Example 145, 2-(azepan-1-yl)-N-(5-sulfamoyl-3-pyridyl)-5-(trifluoromethyl) pyridine-3-carboxamide] | 161 nM
NS(=O)(=O)c1cc(NC(=O)c2cc(C(F)(F)F)cnc2N2CCC3C(C2)C3(F)F)ccn1 (single isomer, unassigned) [Example 69, 2-((1S,6S or 1R,6R)-7,7-difluoro-3-azabicyclo[4.1.0]heptan-3-yl)-N-(2-sulfamoylpyridin-4-yl)-5-(trifluoromethyl)nicotinamide] | 82 nM
CC1(C)CO[C@@H](C(F)(F)F)CN(c2ncc(C(F)(F)F)cc2C(=O)Nc2ccnc(S(N)(=O)=O)c2)C1 [Example 106, 2-[(2R)-6,6-dimethyl-2-(trifluoromethyl)-1,4-oxazepan-4-yl]-N-(2-sulfamoyl-4-pyridyl)-5-(trifluoromethyl)pyridine-3-carboxamide] | 103 nM
NS(=O)(=O)c1cncc(NC(=O)c2cc(C(F)(F)F)cnc2N2CCCC(F)(F)CC2)c1 [Example 144, 2-(4,4-difluoroazepan-1-yl)-N-(5-sulfamoyl-3-pyridyl)-5-(trifluoro-methyl)pyridine-3-carboxamide] | 36 nM
NS(=O)(=O)c1cc(NC(=O)c2cc(Br)cnc2N2CCC(F)(F)CC2)ccn1 [Example 204, 5-bromo-2-(4,4-difluoropiperidin-1-yl)-N-(2-sulfamoylpyridin-4-yl)nicotinamide] | 55 nM
CC1CN(c2ncc(C(F)(F)F)cc2C(=O)Nc2ccnc(S(N)(=O)=O)c2)CC(C)C1O [Example 78, 2-[(3S,4r,5R)-4-hydroxy-3,5-dimethyl-1-piperidyl]-N-(2-sulfamoyl-4-pyridyl)-5-(trifluoromethyl)pyridine-3-carboxamide] | 5080 nM
NS(=O)(=O)c1cc(NC(=O)c2cc(C(F)(F)F)cnc2N2Cc3cccc(OC(F)(F)F)c3C2)ccn1 [Example 90, N-(2-sulfamoyl-4-pyridyl)-2-[4-(trifluoromethoxy)isoindolin-2-yl]-5-(trifluoromethyl)pyridine-3-carboxamide] | 294 nM
NS(=O)(=O)c1cc(NC(=O)c2cc(C(F)(F)F)cnc2N2CCC(c3ccc(C(F)(F)F)cc3)C2)ccn1 (stereo not drawn) [Example 85, N-(2-sulfamoyl-4 pyridyl)-5-(trifluoromethyl)-2-[3-[4-(trifluoromethyl)phenyl]pyrrolidin-1-yl]pyridine-3-carboxamide] | 152 nM
NS(=O)(=O)c1cc(NC(=O)c2cc(C(F)(F)F)cnc2N2CC3CC(F)(F)C3C2)ccn1 (single isomer, unassigned) [Example 64, 2-((1R,2S or 1S,5R)-6,6-difluoro-3-azabicyclo[3.2.0]heptan-3-yl)-N-(2-sulfamoylpyridin-4-yl)-5-(trifluoromethyl)nicotinamide] | 23 nM
